# Assays:
# [1] = target: T1, human plasma angiotensin converting enzyme (Homo sapiens, UniProt P12821); experiment: In vitro assay of inhibition of angiotensin converting enzyme; format: biochemical; conditions: [3H]benzoyl-Gly-His-Leu 80 nM, 37°C, 15 minutes; order of magnitude only; read-out: I50
# T1 construct: partially-purified human plasma angiotensin converting enzyme; from tissue; host or cells: human plasma
# Experimental: To this was added 100 microliters of buffered substrate [S], [^3H]benzoyl-[…], 80 nM (25 Ci/mmole). The reaction was started by adding 100 microliters of partially-purified human plasma angiotensin converting enzyme, or 100 microliters of buffer alone. The concentration of enzyme [E] used was that required to hydrolyze 8-12% of substrate when incubated at 37°C for 15 minutes. The scintillation vials and their contents were incubated at 37°C for 15 minutes, and the reactions were stopped by adding 200 microliters of 0.5M HCI to each vial. The radioactive reaction product, [^3H]benzoyl-Gly(hippuric acid), was separated from unhydrolyzed substrate by adding and mixing (by inversion) 3 ml of Ventrex Cocktail No. 1 (Ventrex Laboratories, Inc., Portland, Maine), a fluid disclosed in copending U.S. patent application No. 184,653, filed September 6, 1980. Extractable ^3H was quantified by liquid scintillation counting. Substrate, in c.p.m., was quantified by scintillation counting of a vial containing 100 μl of buffered substrate in 5 ml of RIAfluor (New England Nuclear). The reaction mixture containing all constituents except for inhibitor was termed the control (C). The reaction mixture lacking enzyme and inhibitor was called the blank (B). Reaction mixtures containing inhibitor (varied over the range of 10^-4-10^-12M) were called the test (T) reactions. Under the conditions of this assay, the reaction obeys first order enzyme kinetics, thus the concentration of inhibitor required to inhibit the rate of hydrolysis by half (150) approximate the Ki value. The results were estimated by use of the formula: [formula] where C = control c.p.m.; B = blank c.p.m.; [S] = substrate c.p.m. The factor 100 converts fractional substrate utilization into percentage utilization, and 1/15 minute connects to percentage substrate utilization/minute. Thus, [E] is enzyme activity in percentage substrate utilization/minute. By substituting T for C, hydrolysis rates are computed for the test reaction mixtures. By comparing a given test rate against the control rate, the degree of inhibition can be computed.
# [2] = system: effects of 400 ng/kg of angiotensin I on mean arterial blood pressure; experiment: Intravenous effectiveness: effect on the pressor response to angiotensin I in anesthetized rats; format: in vivo; conditions: de-iodo analog compared with the iodo compound
# Experimental: Rats (190-290 g body weight) were fasted overnight and then anesthetized with intraperitoneal pentobarbital, 50-60 mg/kg. Tracheostomy was performed and the animals were ventilated mechanically. A cannula was inserted into a femoral vein for injection of angiotensin I, and a second cannula was inserted into a common carotid artery for direct measurement of arterial blood pressure. Heparin, 1,000 units, was injected via the femoral vein to prevent coagulation. Blood pressure was measured with a pressure transducer connected to a polygraph. The rats were injected with […] of angiotensin I in 20 µl of 0.9 g% NaCI, an amount of angiotensin I sufficient to raise mean arterial blood pressure by approximately 48 mm Hg.
# After the responsiveness of a given rat to angiotensin I was established, the named compound at 0.5 micromole/kg (drug dissolved in 15 microliters of 0.9% NaCl) was given intravenously. At timed intervals, the effects of 400 ng/kg of angiotensin I on mean arterial blood pressure were tested. Results are shown below:
# Experiments were carried out using rats according to Example 32.
# man = conditions: 13 patients treated, all biopsies; Hoorntje et al.; cited from earlier work
# [3] = Loss of activity of an aqueous solution on standing; format: physicochemical; conditions: fresh aqueous solution 1 mg per ml, pH of about 8, standing for as little as 30 minutes
# T1 sequence (P12821 30-1232 limits assumed): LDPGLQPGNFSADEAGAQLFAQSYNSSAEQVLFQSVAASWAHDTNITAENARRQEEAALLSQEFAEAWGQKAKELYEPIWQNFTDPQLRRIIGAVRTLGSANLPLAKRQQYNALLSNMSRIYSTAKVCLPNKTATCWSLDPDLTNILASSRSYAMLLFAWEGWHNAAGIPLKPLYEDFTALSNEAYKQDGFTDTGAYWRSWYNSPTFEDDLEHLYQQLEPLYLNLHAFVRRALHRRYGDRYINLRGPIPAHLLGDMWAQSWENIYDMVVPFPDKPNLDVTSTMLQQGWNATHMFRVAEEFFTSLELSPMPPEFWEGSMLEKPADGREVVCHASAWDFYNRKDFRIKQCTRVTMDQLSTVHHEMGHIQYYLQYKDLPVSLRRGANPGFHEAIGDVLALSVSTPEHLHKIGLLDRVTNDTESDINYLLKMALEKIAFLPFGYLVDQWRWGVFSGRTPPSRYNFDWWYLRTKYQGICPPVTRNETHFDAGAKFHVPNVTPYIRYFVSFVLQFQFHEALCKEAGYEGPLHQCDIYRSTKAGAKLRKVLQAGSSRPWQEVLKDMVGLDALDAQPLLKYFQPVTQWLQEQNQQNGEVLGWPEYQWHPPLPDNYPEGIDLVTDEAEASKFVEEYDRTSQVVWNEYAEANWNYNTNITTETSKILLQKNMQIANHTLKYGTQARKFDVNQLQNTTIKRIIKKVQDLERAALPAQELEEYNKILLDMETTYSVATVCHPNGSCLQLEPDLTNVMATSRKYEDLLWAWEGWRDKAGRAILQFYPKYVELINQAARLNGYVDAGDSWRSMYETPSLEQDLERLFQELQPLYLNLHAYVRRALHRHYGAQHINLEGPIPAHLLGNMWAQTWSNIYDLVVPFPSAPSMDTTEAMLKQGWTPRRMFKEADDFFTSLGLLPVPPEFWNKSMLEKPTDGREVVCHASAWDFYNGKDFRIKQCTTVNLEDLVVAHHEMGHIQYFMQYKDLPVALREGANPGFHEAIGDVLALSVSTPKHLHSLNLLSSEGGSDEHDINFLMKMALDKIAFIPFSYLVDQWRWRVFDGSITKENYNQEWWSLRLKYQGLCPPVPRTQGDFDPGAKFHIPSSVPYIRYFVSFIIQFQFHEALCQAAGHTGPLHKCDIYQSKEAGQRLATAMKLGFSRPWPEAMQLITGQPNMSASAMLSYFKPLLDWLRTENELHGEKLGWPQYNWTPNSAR
IC50 [1],Compound,increase of intravenous effectiveness on removal of iodine [2],renal biopsies (man),activity of aqueous solution upon standing [3]
~100 nM,CC(N[C@@H](CC(=O)N1CCCC1)C(=O)O)C(=O)N1CCC[C@H]1C(=O)O (stereo partly drawn) [N-[L-1-carboxy-2-(carbopyrrolide)ethyl]-Alanyl-L-Proline],,,
~1 nM,CC(N[C@@H](CCC(=O)Nc1ccc(I)cc1)C(=O)O)C(=O)N1CCC[C@H]1C(=O)O (stereo partly drawn) [N-[L-1-carboxy-3-(carbo-4-iodo-anilide)propyl] Alanyl-L-Proline],three-fold,,
~1 nM,CC(N[C@@H](CCC(=O)Nc1ccccc1)C(=O)O)C(=O)N1CCC[C@H]1C(=O)O (stereo partly drawn) [N-[L-1-carboxy-3-(carbo-anilide)propyl]-Alanyl-L-Proline],,,
,"C[C@H](CS)C(=O)N1CCC[C@H]1C(=O)O [SQ14225, D-3-mercapto-2-methylpropanoyl-L-proline]",,evidence of immune complex deposition along the glomerular basement membranes,substantially less active

# Source: patent EP0073143B1, “Novel complex amido and imido derivatives of carboxyalkyl peptides and thioethers and ethers of peptides” (priority 1981, dated 1983)
